Measurements: patent EP4353711A1, “QUINOLIN-2-YL NITRONES FOR THE TREATMENT AND PREVENTION OF STROKE” (Consejo Superior De Investigaciones Científicas, priority 2022, dated 2024)

Test system: male C57BL/6J mice
Test: pMCAO stroke model, infarct volume by T2-weighted MRI
Type: in vivo
Settings: 85 mg/kg QN11 intraperitoneally 15 min after arterial ligature
Procedure: To study of the effects of QN11 on stroke recovery, administration of the vehicle and QN11 molecule was performed intraperitoneally, to 8-week-old male C57BL/6J mice (Harlan) weighing 25-30 g. All procedures with animals were carried out under a protocol approved by the Ethical Committee of the Spanish National Research Council (CSIC), and recommendations of the European Council. A special effort was made to keep to a minimum necessary the number of animals to achieve adequate significance. For surgery, anaesthesia induction was carried out with 3% isoflurane (in 70% N2O, 30% O2), followed by 2% isoflurane for maintenance during stroke procedure. Rectal temperature was maintained at 36.5 °C with the use of a heating pad. The common branch of the middle cerebral artery was, after craniotomy, exposed and occluded permanently by suture ligation. To ensure a complete artery occlusion during surgery, cortical blood flow was monitored by non-invasive laser Doppler flowmetry, as a quality control, with the aid of a Perimed equipment (PeriFlux System 5000 Stroke Model Monitor, Perimed, Järfälla, Sweden). […] Animals subjected to surgery for longer than 15 min were excluded of the study. Physiological parameters were maintained. […]
MRI is the most commonly used diagnostic tool for stroke. […] All MRI data was analysed using ImageJ software. […]

SMILES: [O-]/[N+](=C\c1ccc2cccc(O)c2n1)Cc1ccccc1 [QN11, (Z)-N-Benzyl-1-(8-hydroxyquinolin-2-yl)methanimine oxide]
- reduction in the percentage of brain infarct volume (MRI 48 h after pMCAO, compared with vehicle-treated animals (group b)): 74,47%
- infarct volume with regard to the whole brain volume (T2WI MRI 48 h after pMCAO, vehicle group b 2.453 %): 0.6262%
